Legend:
[1] = for surface tension liquid-gas: Pendant drop shape; for mass density: 101 kPa, Liquid
[2] = xn = mol fraction of the nth substance listed; details: for surface tension liquid-gas: Pendant drop shape; for mass density: 101 kPa, Liquid

Cc1ccccc1C [1,2-dimethylbenzene]
[1]
Details	mass density [kg/m3]	surface tension liquid-gas [mN/m]
298.15 K	875.05	29.89
303.15 K	870.83	29.24
308.15 K	866.62	28.57

Cc1ccccc1C [1,2-dimethylbenzene] + CCCOC(C)=O
[2], x2 = 0
Details	mass density [kg/m3]	surface tension liquid-gas [mN/m]
298.15 K	875.05	29.89
303.15 K	870.83	29.24
308.15 K	866.62	28.57

Cc1cccc(C)c1 [1,3-dimethylbenzene]
[1]
Details	mass density [kg/m3]	surface tension liquid-gas [mN/m]
298.15 K	859.8	28.47
303.15 K	855.51	27.93
308.15 K	851.19	27.37

Cc1cccc(C)c1 [1,3-dimethylbenzene] + CCCOC(C)=O
[2]
Details	mass density [kg/m3]	surface tension liquid-gas [mN/m]
298.15 K, x2 = 0	859.8	28.47
298.15 K, x2 = 0.0997	861.98	27.86
298.15 K, x2 = 0.1999	864.17	27.26
298.15 K, x2 = 0.2986	866.33	26.7
298.15 K, x2 = 0.4002	868.57	26.16
298.15 K, x2 = 0.4986	870.76	25.71
298.15 K, x2 = 0.6004	873.06	25.3
298.15 K, x2 = 0.6984	875.31	24.94
298.15 K, x2 = 0.8004	877.7	24.59
298.15 K, x2 = 0.9007	880.11	24.25
303.15 K, x2 = 0	855.51	27.93
303.15 K, x2 = 0.0999	857.57	27.35
303.15 K, x2 = 0.1989	859.62	26.79
303.15 K, x2 = 0.299	861.69	26.25
303.15 K, x2 = 0.4003	863.8	25.73
303.15 K, x2 = 0.5	865.9	25.27
303.15 K, x2 = 0.5994	868.02	24.88
303.15 K, x2 = 0.6998	870.19	24.51
303.15 K, x2 = 0.8006	872.42	24.15
303.15 K, x2 = 0.8992	874.66	23.81
308.15 K, x2 = 0	851.19	27.37
308.15 K, x2 = 0.0998	853.12	26.8
308.15 K, x2 = 0.2	855.07	26.25
308.15 K, x2 = 0.2998	857.01	25.71
308.15 K, x2 = 0.3993	858.96	25.19
308.15 K, x2 = 0.5006	860.96	24.7
308.15 K, x2 = 0.6004	862.95	24.27
308.15 K, x2 = 0.6999	864.97	23.89
308.15 K, x2 = 0.7988	867.02	23.52
308.15 K, x2 = 0.9013	869.2	23.15

Cc1ccc(C)cc1 [1,4-dimethylbenzene]
[1]
Details	mass density [kg/m3]	surface tension liquid-gas [mN/m]
298.15 K	856.92	28.08
303.15 K	852.58	27.47
308.15 K	848.26	27.13

Cc1ccc(C)cc1 [1,4-dimethylbenzene] + CCCOC(C)=O
[2], x2 = 0
Details	mass density [kg/m3]	surface tension liquid-gas [mN/m]
298.15 K	856.92	28.08
303.15 K	852.58	27.47
308.15 K	848.26	27.13

CCc1ccccc1 [ethylbenzene]
[1]
Details	mass density [kg/m3]	surface tension liquid-gas [mN/m]
298.15 K	862.25	28.79
303.15 K	857.88	28.29
308.15 K	853.43	27.85

CCc1ccccc1 [ethylbenzene] + CCCOC(C)=O
[2], x2 = 0
Details	mass density [kg/m3]	surface tension liquid-gas [mN/m]
298.15 K	862.25	28.79
303.15 K	857.88	28.29
308.15 K	853.43	27.85

CCCOC(C)=O [propyl ethanoate]
[1]
Details	mass density [kg/m3]	surface tension liquid-gas [mN/m]
298.15 K	882.54	23.91
303.15 K	876.99	23.46
308.15 K	871.35	22.79

CCCOC(C)=O [propyl ethanoate] + CCc1ccccc1
[2]
Details	mass density [kg/m3]	surface tension liquid-gas [mN/m]
298.15 K, x1 = 0.1005	864.23	28.15
298.15 K, x1 = 0.1994	866.18	27.51
298.15 K, x1 = 0.3002	868.16	26.89
298.15 K, x1 = 0.4005	870.14	26.35
298.15 K, x1 = 0.5	872.12	25.91
298.15 K, x1 = 0.6002	874.14	25.5
298.15 K, x1 = 0.6997	876.17	25.1
298.15 K, x1 = 0.7998	878.24	24.7
298.15 K, x1 = 0.9007	880.38	24.3
298.15 K, x1 = 1	882.54	23.91
303.15 K, x1 = 0.1001	859.75	27.7
303.15 K, x1 = 0.1995	861.59	27.1
303.15 K, x1 = 0.2995	863.45	26.49
303.15 K, x1 = 0.4	865.32	25.95
303.15 K, x1 = 0.5004	867.2	25.49
303.15 K, x1 = 0.5995	869.08	25.07
303.15 K, x1 = 0.6999	871	24.65
303.15 K, x1 = 0.8005	872.96	24.24
303.15 K, x1 = 0.9007	874.96	23.85
303.15 K, x1 = 1	876.99	23.46
308.15 K, x1 = 0.1	855.19	27.24
308.15 K, x1 = 0.2	856.93	26.62
308.15 K, x1 = 0.2999	858.67	26.01
308.15 K, x1 = 0.3997	860.41	25.46
308.15 K, x1 = 0.5003	862.18	24.97
308.15 K, x1 = 0.5999	863.95	24.52
308.15 K, x1 = 0.7001	865.74	24.08
308.15 K, x1 = 0.8007	867.58	23.65
308.15 K, x1 = 0.9003	869.44	23.22
308.15 K, x1 = 1	871.35	22.79

CCCOC(C)=O [propyl ethanoate] + Cc1ccc(C)cc1
[2]
Details	mass density [kg/m3]	surface tension liquid-gas [mN/m]
298.15 K, x1 = 0.1	859.6	27.56
298.15 K, x1 = 0.1995	862.22	27.04
298.15 K, x1 = 0.2981	864.8	26.54
298.15 K, x1 = 0.3986	867.38	26.05
298.15 K, x1 = 0.4993	869.95	25.61
298.15 K, x1 = 0.6002	872.51	25.23
298.15 K, x1 = 0.6991	875	24.89
298.15 K, x1 = 0.7993	877.52	24.56
298.15 K, x1 = 0.8999	880.05	24.23
298.15 K, x1 = 1	882.54	23.91
303.15 K, x1 = 0.0994	855.13	26.98
303.15 K, x1 = 0.1992	857.64	26.48
303.15 K, x1 = 0.2992	860.13	25.99
303.15 K, x1 = 0.3991	862.58	25.52
303.15 K, x1 = 0.5009	865.05	25.1
303.15 K, x1 = 0.5998	867.44	24.76
303.15 K, x1 = 0.6999	869.84	24.43
303.15 K, x1 = 0.8009	872.26	24.1
303.15 K, x1 = 0.8997	874.63	23.78
303.15 K, x1 = 1	876.99	23.46
308.15 K, x1 = 0.1001	850.7	26.61
308.15 K, x1 = 0.1999	853.09	26.09
308.15 K, x1 = 0.2992	855.43	25.57
308.15 K, x1 = 0.4001	857.77	25.06
308.15 K, x1 = 0.4996	860.06	24.62
308.15 K, x1 = 0.6	862.35	24.23
308.15 K, x1 = 0.6996	864.61	23.87
308.15 K, x1 = 0.8003	866.88	23.51
308.15 K, x1 = 0.9002	869.14	23.15
308.15 K, x1 = 1	871.35	22.79

CCCOC(C)=O [propyl ethanoate] + Cc1cccc(C)c1
[2], x1 = 1
Details	mass density [kg/m3]	surface tension liquid-gas [mN/m]
298.15 K	882.54	23.91
303.15 K	876.99	23.46
308.15 K	871.35	22.79

CCCOC(C)=O [propyl ethanoate] + Cc1ccccc1C
[2]
Details	mass density [kg/m3]	surface tension liquid-gas [mN/m]
298.15 K, x1 = 0.0998	876.04	28.94
298.15 K, x1 = 0.1995	876.96	28.14
298.15 K, x1 = 0.2996	877.83	27.47
298.15 K, x1 = 0.4002	878.67	26.85
298.15 K, x1 = 0.5001	879.45	26.27
298.15 K, x1 = 0.6004	880.18	25.71
298.15 K, x1 = 0.7002	880.85	25.18
298.15 K, x1 = 0.7999	881.46	24.69
298.15 K, x1 = 0.9	882.03	24.25
298.15 K, x1 = 1	882.54	23.91
303.15 K, x1 = 0.0999	–	28.41
303.15 K, x1 = 0.1	871.68	–
303.15 K, x1 = 0.1997	872.48	27.6
303.15 K, x1 = 0.2992	873.22	26.92
303.15 K, x1 = 0.3998	873.93	26.3
303.15 K, x1 = 0.4993	874.57	25.74
303.15 K, x1 = 0.6002	875.17	25.2
303.15 K, x1 = 0.6994	875.7	24.7
303.15 K, x1 = 0.8002	876.19	24.24
303.15 K, x1 = 0.902	876.63	23.81
303.15 K, x1 = 1	876.99	23.46
308.15 K, x1 = 0.0999	867.33	27.8
308.15 K, x1 = 0.1999	867.99	27.05
308.15 K, x1 = 0.3001	868.59	26.35
308.15 K, x1 = 0.3989	869.15	25.73
308.15 K, x1 = 0.5002	869.66	25.14
308.15 K, x1 = 0.6008	870.11	24.6
308.15 K, x1 = 0.6998	870.5	24.1
308.15 K, x1 = 0.8007	870.84	23.63
308.15 K, x1 = 0.9	871.12	23.2
308.15 K, x1 = 1	871.35	22.79

From the NIST ThermoML archive (doi:10.1021/je060485s)
